Results reported in patent EP4582413A1, “ARYLTETRAHYDROPYRIDINE COMPOUND AND PEST CONTROL AGENT” (priority 2022, dated 2024).

Columns and labels:
Assay type in all cases: in vivo
Trichostrongylus axei = assay: Effect test for Trichostrongylus axei; parameters: concentration or dose not given beside the values; settings: test chemical solution B added to eggs in 96-well plate, unhatched eggs and inactive larvae counted 4 days after addition, 25°C, relative to untreated plot
Procedure: Agar medium with 1% potato dextrose was aliquoted into 60-µl portions in a 96-well plate, and 30 µl of sterilized water containing Trichostrongylus axei eggs and a freeze-dried Escherichia coli OP50 strain (five eggs, 10 µg/10 µl Escherichia coli) was added to each well. From above, 10 µl of test chemical solution B of the presently invented compound was added to each well, and the plate was left to stand under dark conditions at 25°C.

[1] = tested on: brown rice planthoppers (Nilaparvata lugens); assay: Insecticidal test for brown rice planthoppers; settings: Nilaparvata lugens, 144 h; 500 ppm chemical solution, rice leaf sheaths soaked, third-instar larvae, six days, 25°C; read-out: death rate
Procedure: A 10% by mass emulsion of the presently invented compound prepared according to the above formulation example for an emulsion was diluted with water containing a spreader to prepare a chemical solution having a concentration of 500 ppm. Rice leaf sheaths were soaked in the chemical solution for approximately 10 seconds. After the completion of the soaking operation, the rice leaf sheaths treated with the chemical solution were air-dried, and then put in test tubes. Into each test tube, five third-instar brown rice planthoppers (Nilaparvata lugens) larvae were released, and the test tubes were capped with sponge and accommodated in a thermostatic room at 25°C. Six days after the accommodation, the number of dead brown rice planthoppers individuals in the test tubes were examined, and the death rate was calculated from a calculation formula shown below. The test was carried out in duplicate. [formula]

[2] = tested on: western flower thrips (Frankliniella occidentalis); assay: Insecticidal activity against western flower thrips; settings: Frankliniella occidentalis, 48 h; 500 ppm chemical solution sprinkled (2.5 mg/cm^2), larvae on common bean leaf, after 2 days; read-out: death rate
Procedure: Wet filter paper was laid on each styrol cup having an inner diameter of 7 cm, and a common bean leaf cut into a 3 cm square was placed thereon, and inoculated with 20 western flower thrips (Frankliniella occidentalis) larvae. A 10% by mass emulsion of the presently invented compound prepared according to the above formulation example for an emulsion was diluted with water containing a spreader to prepare a chemical solution having a concentration of 500 ppm. For each styrol cup, 2.5 ml of the chemical solution prepared was sprinkled (2.5 mg/cm^2) with a rotary tower sprinkler. […] The test was carried out in duplicate.

[3] = tested on: diamondback moths (Plutella xylostella); assay: Insecticidal test for diamondback moths; settings: Plutella xylostella, 144 h; 500 ppm chemical solution, leaves soaked, third-instar larvae, six days, 25°C; read-out: death rate
Procedure: A 10% by mass emulsion of the presently invented compound prepared according to the above formulation example for an emulsion was diluted with water containing a spreader to prepare a chemical solution having a concentration of 500 ppm. Chinese olive leaves were soaked in the chemical solution for approximately 10 seconds. After the completion of the soaking operation, the Chinese olive leaves treated with the chemical solution were air-dried, and then put in dishes. Into each dish, five third-instar diamondback moths (Plutella xylostella) larvae were released, and the dishes were capped and accommodated in a thermostatic room at 25°C. […] The test was carried out in duplicate.

[4] = tested on: cat fleas (Ctenocephalides felis); assay: whole plant or invertebrate; settings: 72 h, read-out: death rate
Procedure: In 1 ml of acetone, 1 mg of the presently invented compound was dissolved to prepare a chemical solution having a concentration of 1000 ppm. The bottom surface and side surface of each glass container having an inner wall surface area of 25 cm^2 were coated with 250 µl of the chemical solution, and acetone was then volatilized to form a thin film of the compound on the inner wall of the glass container.
Into each of the treated glass containers, five cat fleas (Ctenocephalides felis) imagoes (mixed-sex) were released, and the glass containers were capped and accommodated in a thermostatic room at 25°C. Three days after the release, the number of dead flea individuals were examined, and the death rate was calculated from the same calculation formula as in Test Example 1.

Structure (SMILES)	efficacy (%) (Trichostrongylus axei)	mortality at 500 µg/mL [1]	mortality at 500 µg/mL [2]	mortality at 500 µg/mL [3]	mortality at 10 µg/cm2 [4]
O=C(Nc1ccc(SC(F)(F)F)cc1)C1=C(O)CC(c2cnc(Cl)c(-c3ccc(F)nc3)c2)NC1=O (stereo not shown) [2-038]	≥ 50%				
O=C(Nc1ccc(C(F)(F)F)cn1)C1=C(O)CC(c2cnc(Cl)c(-c3cncc(F)c3)c2)NC1=O (stereo not shown) [2-056]	≥ 50%				
N#Cc1ccc(NC(=O)C2=C(O)CC(c3cnc(Cl)c(-c4ccc(F)nc4)c3)NC2=O)nc1 (stereo not shown) [2-088]	≥ 50%				
O=C(Nc1ncc(F)cc1Cl)C1=C(O)CC(c2cnc(Cl)c(-c3ccc(F)nc3)c2)NC1=O (stereo not shown) [2-103]	≥ 50%				
O=C(Nc1ccc(F)cn1)C1=C(O)CC(c2cnc(Cl)c(-c3ccnc(F)c3)c2)NC1=O (stereo not shown) [2-115]	≥ 50%				
Cc1cnc(NC(=O)C2=C(O)CC(c3cnc(Cl)c(-c4ccc(F)nc4)c3)NC2=O)nc1 (stereo not shown) [2-120]	≥ 50%				
O=C(Nc1cnc(Cl)c(Cl)c1)C1=C(O)CC(c2cnc(Cl)c(-c3ccc(F)nc3)c2)NC1=O (stereo not shown) [2-126]	≥ 50%				
O=C(Nc1ccc(Cl)nc1Cl)C1=C(O)CC(c2cnc(Cl)c(-c3ccc(F)nc3)c2)NC1=O (stereo not shown) [2-128]	≥ 50%				
Cc1cc(NC(=O)C2=C(O)CC(c3cnc(Cl)c(-c4ccc(F)nc4)c3)NC2=O)cnc1Cl (stereo not shown) [2-129]	≥ 50%				
Cc1cc(Cl)cnc1NC(=O)C1=C(O)CC(c2cnc(Cl)c(-c3ccc(F)nc3)c2)NC1=O (stereo not shown) [2-130]	≥ 50%				
O=C(Nc1ncc(Cl)nc1Cl)C1=C(O)CC(c2cnc(Cl)c(-c3ccc(F)nc3)c2)NC1=O (stereo not shown) [2-131]	≥ 50%				
O=C(Nc1ccc(Br)c(F)n1)C1=C(O)CC(c2cnc(Cl)c(-c3ccc(F)nc3)c2)NC1=O (stereo not shown) [2-132]	≥ 50%				
O=C(Nc1cnccn1)C1=C(O)CC(c2cnc(Cl)c(-c3ccc(F)nc3)c2)NC1=O (stereo not shown) [2-133]	≥ 50%				
Cc1ccnc(NC(=O)C2=C(O)CC(c3cnc(Cl)c(-c4ccc(F)nc4)c3)NC2=O)c1 (stereo not shown) [2-153]	≥ 50%				
O=C(Nc1ccc(F)cn1)C1=C(O)CC(c2cnc(C(F)(F)F)c(-c3ccc(F)nc3)c2)NC1=O (stereo not shown) [2-167]	≥ 50%				
O=C(Nc1ccc(Cl)cn1)C1=C(O)CC(c2cnc(C(F)(F)F)c(-c3ccc(F)nc3)c2)NC1=O (stereo not shown) [2-169]	≥ 50%				
O=C(Nc1ccc(F)cc1)C1=C(O)CC(c2nc(-c3ccncc3)no2)NC1=O (stereo not shown) [3-031]		≥ 90%	≥ 90%	≥ 90%	≥ 50%
O=C(Nc1ccc(F)cc1)C1=C(O)CC(c2nc(-c3cc(F)cc(F)c3)no2)NC1=O (stereo not shown) [3-034]		≥ 90%	≥ 90%	≥ 90%	≥ 50%
O=C(Nc1ccc(F)cn1)C1=C(O)CC(c2nc(-c3ccnc(F)c3)no2)NC1=O (stereo not shown) [3-036, N-(5-fluoropyridin-2-yl)-6-(3-(2-fluoropyridin-4-yl)-1,2,4-oxadiazol-5-yl)-4-hydroxy-2-oxo-1,2,5,6-tetrahydropyridine-3-carboxamide]		≥ 90%	≥ 90%	≥ 90%	≥ 50%
O=C(Nc1cc(F)ccn1)C1=C(O)CC(c2nc(-c3cc(F)ccc3F)no2)NC1=O (stereo not shown) [3-050]		≥ 90%	≥ 90%	≥ 90%	≥ 50%

Structure (SMILES)	efficacy (%) (Trichostrongylus axei)	mortality at 500 µg/mL [1]	mortality at 500 µg/mL [2]	mortality at 500 µg/mL [3]	mortality at 10 µg/cm2 [4]
O=C(Nc1cc(F)ccn1)C1=C(O)CC(c2nc(-c3cccc(F)c3)no2)NC1=O (stereo not shown) [3-057]		≥ 90%	≥ 90%	≥ 90%	≥ 50%
O=C(Nc1ccccn1)C1=C(O)CC(c2nc(-c3ccnc(F)c3)no2)NC1=O (stereo not shown) [3-065]		≥ 90%	≥ 90%	≥ 90%	≥ 50%
N#Cc1ccc(NC(=O)C2=C(O)CC(c3nc(-c4ccnc(F)c4)no3)NC2=O)cc1 (stereo not shown) [3-071]		≥ 90%	≥ 90%	≥ 90%	≥ 50%
O=C(Nc1cc(F)ccn1)C1=C(O)CC(c2nc(-c3ccc(F)c(Br)c3)no2)NC1=O (stereo not shown) [3-146]		≥ 90%	≥ 90%	≥ 90%	≥ 50%
O=C(Nc1cc(Cl)ccn1)C1=C(O)CC(c2nc(-c3ccc(F)cc3F)no2)NC1=O (stereo not shown) [3-155]		≥ 90%	≥ 90%	≥ 90%	≥ 50%
O=C(Nc1ccc(F)cc1F)C1=C(O)CC(c2nc(-c3ccc(F)cc3F)no2)NC1=O (stereo not shown) [3-157]		≥ 90%	≥ 90%	≥ 90%	≥ 50%
O=C(Nc1ccc(F)c(F)c1)C1=C(O)CC(c2nc(-c3ccc(F)cc3F)no2)NC1=O (stereo not shown) [3-161]		≥ 90%	≥ 90%	≥ 90%	≥ 50%
Cc1ccc(NC(=O)C2=C(O)CC(c3nc(-c4ccc(F)cc4F)no3)NC2=O)nc1 (stereo not shown) [3-175]		≥ 90%	≥ 90%	≥ 90%	≥ 50%
Cc1ccnc(NC(=O)C2=C(O)CC(c3nc(-c4ccncc4C)no3)NC2=O)c1 (stereo not shown) [3-176]		≥ 90%	≥ 90%	≥ 90%	≥ 50%
O=C(Nc1cccnc1)C1=C(O)CC(c2nc(-c3ccc(F)cc3F)no2)NC1=O (stereo not shown) [3-177]		≥ 90%	≥ 90%	≥ 90%	≥ 50%
O=C(Nc1ccccn1)C1=C(O)CC(c2nc(-c3ccc(F)cc3)no2)NC1=O (stereo not shown) [3-184]		≥ 90%	≥ 90%	≥ 90%	≥ 50%
O=C(Nc1ccccn1)C1=C(O)CC(c2nc(-c3cccc(F)c3)no2)NC1=O (stereo not shown) [3-185]		≥ 90%	≥ 90%	≥ 90%	≥ 50%
O=C(Nc1cc(F)ccn1)C1=C(O)CC(c2nc(-c3ccns3)no2)NC1=O (stereo not shown) [3-227]		≥ 90%	≥ 90%	≥ 90%	≥ 50%
O=C(Nc1ncccc1Br)C1=C(O)CC(c2nc(-c3cnccc3F)no2)NC1=O (stereo not shown) [3-233]		≥ 90%	≥ 90%	≥ 90%	≥ 50%
O=C(Nc1cc(F)ccn1)C1=C(O)CC(c2nc(-c3cscc3Cl)no2)NC1=O (stereo not shown) [3-234]		≥ 90%	≥ 90%	≥ 90%	≥ 50%
O=C(Nc1cc(F)ccn1)C1=C(O)CC(c2nc(-c3ccsc3Cl)no2)NC1=O (stereo not shown) [3-235]		≥ 90%	≥ 90%	≥ 90%	≥ 50%
O=C(Nc1cccc(F)n1)C1=C(O)CC(c2nc(-c3ccncc3F)no2)NC1=O (stereo not shown) [3-238]		≥ 90%	≥ 90%	≥ 90%	≥ 50%
O=C(Nc1cccc(F)n1)C1=C(O)CC(c2nc(-c3ccncc3Cl)no2)NC1=O (stereo not shown) [3-239]		≥ 90%	≥ 90%	≥ 90%	≥ 50%
O=C(Nc1ccccn1)C1=C(O)CC(c2nc(-c3snc(Cl)c3Cl)no2)NC1=O (stereo not shown) [3-263]		≥ 90%	≥ 90%	≥ 90%	≥ 50%
O=C(Nc1ccc(F)cn1)C1=C(O)CC(c2nc(-c3cnc(C(F)(F)F)s3)no2)NC1=O (stereo not shown) [3-264]		≥ 90%	≥ 90%	≥ 90%	≥ 50%
